The text below walks through data of patent US9751878B2, “Tetrahydronaphthyridine somatostatin receptor 5 antagonists” (Takeda Pharmaceutical Company Limited, priority 2013, dated 2017).

Experiment [1] has as its system Male KK-Ay/Ta mice, a type 2 diabetes model. In words: Antidiabetic effect in mice (2). It counts as in vivo. Conditions: 0.03% food admixture with CE-2 diet for 2 weeks; n=7. As to the method: Antidiabetic Effect in Mice (2)
Male KK-Ay/Ta mice (Clea Japan Inc.), a type 2 diabetes model, were used in this study. At the age of 7-week old, blood samples were collected from tail vein at 8:00 am, and animals were divided into separate groups (n=7) based on glycated hemoglobin (GHb), plasma glucose, insulin, triglyceride levels and body weight. The Compound of Example 35 (0.03% (weight % of the compound in the food admixture)) was administered by food admixture with CE-2 diet (Clea Japan Inc.) for 2 weeks. After 2 weeks of treatment, GHb was determined by auto-analyzer HLC-723G8 (TOSOH, Japan).

The target of experiment [2] is T1, human SSTR5 (Homo sapiens, UniProt P35346).
T1 construct: expressed in transfected cells
In words: Evaluation of human SSTR5 antagonist activity using intracellular cAMP concentration as index. The class given is cell-based. Conditions: 1 μM test compound; CHO (dhfr-) cells stably expressing human SSTR5; 0.1 nM somatostatin 28, 0.3 μM forskolin; cAMP HTRF; read-out: Inhibition rate against SSTR5 at 1 μM. As to the method:
Evaluation of Human SSTR5 Antagonist Activity Using Intracellular cAMP Concentration as Index
The intracellular cAMP concentration was measured using HTRF cAMP dynamic 2 kit (Cisbio Bioassays). Each test compound diluted with an assay buffer (HBSS (Invitrogen Corp.) containing 5 mM HEPES (pH 7.5) (Invitrogen Corp.), 0.1% fatty-acid free BSA (Sigma-Aldrich Corp.), and 500 μM IBMX (Wako Pure Chemical Industries, Ltd.)) was added at a concentration of 2 μL/well to a 384-well white plate (Greiner Bio-One Co., Ltd.) to give the final concentration of 1 μM. A frozen stock of CHO (dhfr-) cells stably expressing the human SSTR5 gene (Accession No. NM_001053) was thawed in a thermostat bath of 37° C. and suspended in a subculture medium (MEM alpha (Wako Pure Chemical Industries, Ltd.), 10% dialyzed serum (Gemini Bio-Products), and 50 μg/mL gentamicin (Invitrogen Corp.). After centrifugation of the cell suspension, the cells were resuspended in an assay buffer and added at a concentration of 2 μL/well (about 4,000 cells/well) to the plate. The compound and the cells were incubated for 15 minutes, and then, an assay buffer containing 0.1 nM (final concentration) somatostatin 28 (Toray Research Center) and 0.3 μM (final concentration) forskolin (Wako Pure Chemical Industries, Ltd.) was added thereto at a concentration of 2 μL/well, followed by incubation at room temperature for 30 minutes. cAMP-d2 and anti-cAMP-cryptate were each added thereto at a concentration of 3 μL/well. The plate was left standing at room temperature for 60 minutes. Then, the fluorescence resonance energy transfer (FRET) intensity was measured using Multi-label reader Envision (PerkinElmer). The FRET intensity of the wells supplemented with the test compound group was converted to a cAMP concentration using a calibration curve prepared from the FRET intensity of a well group containing an assay buffer supplemented with an arbitrary concentration of cAMP. The inhibitory activity of each compound was calculated according to the following expression: Inhibitory activity (%)=(C−B)/(A−B)×100 A: cAMP concentration calculated from the wells supplemented with 0.3 μM forskolin B: cAMP concentration calculated from the wells supplemented with 0.3 μM forskolin and 0.1 nM somatostatin 28 C: cAMP concentration calculated from the wells supplemented with 0.3 μM forskolin, 0.1 nM somatostatin 28, and 1 μM test compound

The test system of experiment [3] is Male KK-Ay/Ta mice, a type 2 diabetes model. In words: Antidiabetic effect in mice (1). Conditions: 10 mg/kg orally once a day for 2 weeks; n=8. The class given is in vivo. As to the method: Antidiabetic Effect in Mice (1)
Male KK-Ay/Ta mice (Clea Japan Inc.), a type 2 diabetes model, were used in this study. At the age of 7-week old, blood samples were collected from tail vein at 8:00 am, and animals were divided into separate groups (n=8) based on glycated hemoglobin (GHb), plasma glucose, insulin, triglyceride levels and body weight. Vehicle (0.5% (w/v) methylcellulose) or the compound of Example 67 (10 mg/kg) (suspended in vehicle) were orally administered once a day for 2 weeks. After 2 weeks of treatment, GHb was determined by auto-analyzer HLC-723G8 (TOSOH, Japan).

Experiment [4] relates to high fat diet-fed male C57BL6J mice. In words: Glucose tolerance test in mice (oral glucose tolerance test). It counts as in vivo. Conditions: 1 mg/kg oral, n=6. As to the method: Glucose Tolerance Test in Mice
Oral glucose tolerance test was performed in high fat diet-fed male C57BL6J mice (Clea Japan Inc.). 8 weeks old mice were fasted overnight and divided into separate groups (n=6) based on plasma glucose levels and body weight. Vehicle (0.5% (w/v) methylcellulose) or the compound of Example 72 (1 mg/kg) (suspended in vehicle) were orally given to animals and glucose was loaded (5 g/kg) 1 h after drug administration. Blood was collected from tail vein and blood glucose levels (mg/dL) were measured by ACCU-CHEK (Roche Inc.) at time 0 (just before glucose load), 10, 30, 60 and 120 min after glucose load.

T1 sequence (P35346 whole entry): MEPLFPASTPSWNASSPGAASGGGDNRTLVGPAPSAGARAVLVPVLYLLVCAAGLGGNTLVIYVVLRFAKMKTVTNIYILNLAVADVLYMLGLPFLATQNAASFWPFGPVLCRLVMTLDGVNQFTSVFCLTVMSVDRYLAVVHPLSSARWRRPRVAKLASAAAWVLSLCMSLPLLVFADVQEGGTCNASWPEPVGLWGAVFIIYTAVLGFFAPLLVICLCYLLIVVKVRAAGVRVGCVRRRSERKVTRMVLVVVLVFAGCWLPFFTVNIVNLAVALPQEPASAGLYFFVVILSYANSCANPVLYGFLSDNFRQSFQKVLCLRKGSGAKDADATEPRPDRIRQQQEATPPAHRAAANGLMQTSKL

`CCCc1nc2c(cc1C(=O)O)C(=O)N(C1CCN(Cc3cc(C4CC4)c(-c4ccc(F)cc4F)cc3OCC)CC1)CC2` [Example 35, 6-(1-((2-Cyclopropyl-5-ethoxy-2′,4′-difluorobiphenyl-4-yl)methyl)piperidin-4-yl)-5-oxo-2-propyl-5,6,7,8-tetrahydro-1,6-naphthyridine-3-carboxylic acid]: in experiment [1], the “Average of delta GHb (%)” value was determined as 0.60%.

Regarding `CCCc1nc2c(cc1C(=O)O)C(=O)N(C1CCN(Cc3cc(OCC)c(-c4ccc(F)c(F)c4)c(C4CC4)c3)CC1)CC2` [Example 62, 6-(1-((2-Cyclopropyl-6-ethoxy-3′,4′-difluorobiphenyl-4-yl)methyl)piperidin-4-yl)-5-oxo-2-propyl-5,6,7,8-tetrahydro-1,6-naphthyridine-3-carboxylic acid], the inhibition at 1 µM in experiment [2] is 92%.

On to `CCCc1nc2c(cc1C(=O)O)C(=O)N(C1CCN(Cc3cc(OC(C)C)c(-c4ccc(F)cc4)c(C4CC4)c3)CC1)CC2` [Example 63, 6-(1-((2-Cyclopropyl-4′-fluoro-6-isopropoxybiphenyl-4-yl)methyl)piperidin-4-yl)-5-oxo-2-propyl-5,6,7,8-tetrahydro-1,6-naphthyridine-3-carboxylic acid], for which, in experiment [2], the inhibition at 1 µM is 97%.

Regarding `CCCc1nc2c(cc1C(=O)O)C(=O)N(C1CCN(Cc3cc(OCC)c(-c4ccc(F)cc4F)c(C4CC4)c3)CC1)CC2` [Example 64, 6-(1-((2-Cyclopropyl-6-ethoxy-2′,4′-difluorobiphenyl-4-yl)methyl)piperidin-4-yl)-5-oxo-2-propyl-5,6,7,8-tetrahydro-1,6-naphthyridine-3-carboxylic acid], the inhibition at 1 µM in experiment [2] worked out at 89%.

In the case of `CCCc1nc2c(cc1C(=O)O)C(=O)N(C1CCN(Cc3cc(C4CC4)c(-c4ccc(F)cc4F)c(F)c3OC)CC1)CC2` [Example 65, 6-(1-((6-Cyclopropyl-2,2′,4′-trifluoro-3-methoxybiphenyl-4-yl)methyl)piperidin-4-yl)-5-oxo-2-propyl-5,6,7,8-tetrahydro-1,6-naphthyridine-3-carboxylic acid], the inhibition at 1 µM in experiment [2] was 86%.

For `CCc1nc2c(cc1C(=O)O)C(=O)N(C1CCN(Cc3cc(C4CC4)c(-c4ccc(F)cc4F)c(Cl)c3OC)CC1)CC2` [Example 66, 6-(1-((2-Chloro-6-cyclopropyl-2′,4′-difluoro-3-methoxybiphenyl-4-yl)methyl)piperidin-4-yl)-2-ethyl-5-oxo-5,6,7,8-tetrahydro-1,6-naphthyridine-3-carboxylic acid], the inhibition at 1 µM in experiment [2] was 64%.

With `CCCc1nc2c(cc1C(=O)O)C(=O)N(C1CCN(Cc3cc(C4CC4)c(-c4ccc(F)cc4)c(F)c3OCC)CC1)CC2` [Example 67, 6-(1-((6-Cyclopropyl-3-ethoxy-2,4′-difluorobiphenyl-4-yl)methyl)piperidin-4-yl)-5-oxo-2-propyl-5,6,7,8-tetrahydro-1,6-naphthyridine-3-carboxylic acid], the “Average of delta GHb (%)” value in experiment [3] came out at 0.40%.

Turning to `CCc1nc2c(cc1C(=O)O)C(=O)N(C1CCN(Cc3cc(C4CC4)c(-c4ccc(F)cc4)c(F)c3OC(C)C)CC1)CC2` [Example 72, 6-(1-((6-Cyclopropyl-2,4′-difluoro-3-isopropoxybiphenyl-4-yl)methyl)piperidin-4-yl)-2-ethyl-5-oxo-5,6,7,8-tetrahydro-1,6-naphthyridine-3-carboxylic acid], the inhibition at 1 µM in experiment [2] was determined as 97%. Further, the “blood glucose levels, 10 min” value in experiment [4] (10 min after glucose load (5 g/kg)) stood at 283 mg/dL. Further, in experiment [4] (30 min after glucose load (5 g/kg)), the “blood glucose levels, 30 min” value is reported as 269 mg/dL. The “blood glucose levels, 60 min” value in experiment [4] (60 min after glucose load (5 g/kg)) came out at 267 mg/dL. Also, the “blood glucose levels, 120 min” value in experiment [4] (120 min after glucose load (5 g/kg)) was 140 mg/dL. In experiment [4] (time 0 (just before glucose load, 1 h after drug administration)), the “blood glucose levels, 0 min” value worked out at 123 mg/dL. For the same compound, the AUCpre-120 min in experiment [4] (blood glucose AUC, glucose load 5 g/kg) is 463 mg·h/dL.

In the case of `CCCc1nc2c(cc1C(=O)O)C(=O)N(C1CCN(Cc3cc(C4CC4)c(-c4ccc(F)cc4)c(F)c3OC)CC1)CC2` [Example 81, 6-(1-((6-Cyclopropyl-2,4′-difluoro-3-methoxybiphenyl-4-yl)methyl)piperidin-4-yl)-5-oxo-2-propyl-5,6,7,8-tetrahydro-1,6-naphthyridine-3-carboxylic acid], the inhibition at 1 µM in experiment [2] is 82%.
